Test results taken from patent US20230226062A1, “HETEROCYCLIC COMPOUNDS AS IMMUNOMODULATORS” (Incyte Corporation, priority 2016, published 2023).

Biological target: T1, PD-1/PD-L1 (Homo sapiens, UniProt Q9NZQ7)
T1 construct: Recombinant human PD-L1 protein (19-238) with a His-tag at the C-terminus; purchased AcroBiosystems PD1-H5229 (PD-L1); PD1-H5257 (PD-1)
Test: PD-1/PD-L1 Homogeneous Time-Resolved Fluorescence (HTRF) binding assay
Conditions: recombinant human PD-L1 (19-238)-His 10 nM, human PD-1 (25-167)-Fc 3 nM, 25° C., PBS pH 7.4
Description: Example A. PD-1/PD-L1 Homogeneous Time-Resolved Fluorescence (HTRF) Binding Assay
The assays were conducted in a standard black 384-well polystyrene plate with a final volume of 20 μL. Inhibitors were first serially diluted in DMSO and then added to the plate wells before the addition of other reaction components. The final concentration of DMSO in the assay was 1%. The assays were carried out at 25° C. in the PBS buffer (pH 7.4) with 0.05% Tween-20 and 0.1% BSA. Recombinant human PD-L1 protein (19-238) with a His-tag at the C-terminus was purchased from AcroBiosystems (PD1-H5229). Recombinant human PD-1 protein (25-167) with Fc tag at the C-terminus was also purchased from AcroBiosystems (PD1-H5257). PD-L1 and PD-1 proteins were diluted in the assay buffer and 10 μL was added to the plate well. Plates were centrifuged and proteins were preincubated with inhibitors for 40 minutes. The incubation was followed by the addition of 10 μL of HTRF detection buffer supplemented with Europium cryptate-labeled anti-human IgG (PerkinElmer-AD0212) specific for Fc and anti-His antibody conjugated to SureLight®-Allophycocyanin (APC, PerkinElmer-AD0059H). After centrifugation, the plate was incubated at 25° C. for 60 min. before reading on a PHERAstar FS plate reader (665 nm/620 nm ratio). Final concentrations in the assay were—3 nM PD1, 10 nM PD-L1, 1 nM europium anti-human IgG and 20 nM anti-His-Allophycocyanin. IC50 determination was performed by fitting the curve of percent control activity versus the log of the inhibitor concentration using the GraphPad Prism 5.0 software.

T1 sequence (Q9NZQ7 19-238): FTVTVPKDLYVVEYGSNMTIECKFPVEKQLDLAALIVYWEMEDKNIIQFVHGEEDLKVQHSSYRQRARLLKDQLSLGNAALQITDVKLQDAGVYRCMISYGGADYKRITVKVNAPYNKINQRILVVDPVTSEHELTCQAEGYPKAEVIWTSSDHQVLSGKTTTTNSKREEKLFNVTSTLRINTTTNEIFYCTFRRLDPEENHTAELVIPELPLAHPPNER

Row | IC50 [nM] | SMILES
1 | 10 to 100 | Cc1c(Oc2ncnc3c(CNCCO)csc23)cccc1-c1ccccc1 [Example 1, 2-((4-(2-methylbiphenyl-3-yloxy)thieno[3,2-d]pyrimidin-7-yl)methylamino)ethanol]
2 | 10 to 100 | Cc1c(-c2ccccc2)cccc1-c1cnn(C[C@@H]2CCCN2)c1 [Example 2, 4-(2-methylbiphenyl-3-yl)-1-[(2S)-pyrrolidin-2-ylmethyl]-1H-pyrazole]
3 | ≤ 10 | COc1cccc(-c2cccc(Nc3nccc(CNCCO)c3F)c2Cl)c1F [Example 3, 2-((2-(2-chloro-2′-fluoro-3′-methoxybiphenyl-3-ylamino)-3-fluoropyridin-4-yl)methylamino)ethanol]
4 | 10 to 100 | Cc1c(-c2ccccc2)cccc1-c1ccc2nc(CN3CCCC[C@H]3C(=O)O)cc(C)c2c1 [Example 4, (S)-1-((4-methyl-6-(2-methylbiphenyl-3-yl)quinolin-2-yl)methyl)piperidine-2-carboxylic acid]
5 | 10 to 100 | Cc1c(-c2ccccc2)cccc1-c1ccc2c(c1)CNC2 [Example 5, 5-(2-methylbiphenyl-3-yl)isoindoline]
6 | 10 to 100 | NCc1ccc(-c2cccc(-c3ccccc3)c2Cl)cn1 [Example 6, (5-(2-chlorobiphenyl-3-yl)pyridin-2-yl)methanamine]
7 | 10 to 100 | Cc1c(-c2ccccc2)cccc1-c1ccc(CNCCO)cc1 [Example 7, 2-{[(2′-methyl-1,1′:3′,1″-terphenyl-4-yl)methyl]amino}ethanol]
8 | 10 to 100 | Cc1c(/C=C/c2ccc(CN3CCCC[C@@H]3C(=O)O)cn2)cccc1-c1ccccc1 [Example 8, (R,E)-1-((6-(2-(2-methyl-[1,1′-biphenyl]-3-yl)vinyl)pyridin-3-yl)methyl)piperidine-2-carboxylic acid]
9 | 10 to 100 | COc1cccc(-c2cccc(Nc3nccn4c(CNCCO)cnc34)c2C)c1F [Example 9, 2-(((8-((2′-fluoro-3′-methoxy-2-methyl-[1,1′-biphenyl]-3-yl)amino)imidazo[1,2-a]pyrazin-3-yl)methyl)amino)ethan-1-ol]
10 | 100 to 1000 | Cc1cc(CN2CCCC[C@H]2C(=O)O)ccc1OC1CCc2c(-c3ccccc3)cccc21 (stereo partly drawn) [Example 10, (2S)-1-(3-methyl-4-(4-phenyl-2,3-dihydro-1H-inden-1-yloxy)benzyl)piperidine-2-carboxylic acid]
11 | 100 to 1000 | Cc1c(NC(=O)c2cccn3c(CN4CCCC[C@H]4C(=O)O)cnc23)cccc1-c1ccccc1 [Example 11, (S)-1-((8-(2-methylbiphenyl-3-ylcarbamoyl)imidazo[1,2-a]pyridin-3-yl)methyl)piperidine-2-carboxylic acid]
12 | 100 to 1000 | O=C(Nc1ccc2cnc(-c3ccccc3)cc2c1Cl)c1ccc(CNCCO)cn1 [Example 12, N-(5-chloro-3-phenylisoquinolin-6-yl)-5-((2-hydroxyethylamino)methyl) picolinamide]
13 | 10 to 100 | Cc1c(-c2ccccc2)cccc1-c1ccc2c(c1)CCNC2 [Example 13, 6-(2-methylbiphenyl-3-yl)-1,2,3,4-tetrahydroisoquinoline]
14 | 100 to 1000 | Cc1c(-c2ccccc2)cccc1N1CCc2cc(CNCCO)ccc2C1 [Example 14, 2-((2-(2-methylbiphenyl-3-yl)-1,2,3,4-tetrahydroisoquinolin-6-yl)methylamino)ethanol]
15 | 100 to 1000 | Cc1c(Nc2ccc3c(c2)CCNC3)cccc1-c1ccccc1 [Example 15, N-(2-methylbiphenyl-3-yl)-1,2,3,4-tetrahydroisoquinolin-6-amine]
16 | 100 to 1000 | Cc1c(-c2ccccc2)cccc1-c1ccc2c(c1)CCC(CN(C)C)O2 (centres unmarked) [Example 16, N,N-dimethyl-1-(6-(2-methylbiphenyl-3-yl)chroman-2-yl)methanamine]
17 | 100 to 1000 | Cc1c(-c2ccccc2)cccc1-c1cnc2c(c1)CNC2 [Example 17, 3-(2-methylbiphenyl-3-yl)-6,7-dihydro-5H-pyrrolo[3,4-b]pyridine]
18 | 100 to 1000 | Cc1c(Nc2ccc3c(c2)CCN(C(CO)CO)C3)cccc1-c1ccccc1 [Example 18, 2-(6-(2-methylbiphenyl-3-ylamino)-3,4-dihydroisoquinolin-2(1H)-yl)propane-1,3-diol]
19 | 100 to 1000 | Cc1c(-c2ccccc2)cccc1N1Cc2ccc(CNCCO)cc2C1 [Example 19, 2-((2-(2-methylbiphenyl-3-yl)isoindolin-5-yl)methylamino)ethanol]

Row | IC50 [nM] | SMILES
20 | 100 to 1000 | Cc1c(-c2ccccc2)cccc1-c1cnc2c(c1)CNCC2 [Example 20, 3-(2-methylbiphenyl-3-yl)-5,6,7,8-tetrahydro-1,6-naphthyridine]
21 | 100 to 1000 | Cc1c(-c2ccccc2)ccnc1-c1ccc(CN)cc1 [Example 21, (4-(3-methyl-4-phenylpyridin-2-yl)phenyl)methanamine]
22 | 100 to 1000 | O[C@H]1CC[C@@H](NCc2ccc(N3CCCC(c4ccccc4)C3)cn2)CC1 (stereo partly drawn) [Example 22, Cis-4-((5-(3-phenylpiperidin-1-yl)pyridin-2-yl)methylamino)cyclohexanol]
23 | 1000 to 2000 | OCC1(CNC2CCN(c3cccc(Nc4ccccc4)c3Cl)CC2)CCC1 [Example 23, (1-((1-(2-chloro-3-(phenylamino)phenyl)piperidin-4-ylamino)methyl)cyclobutyl)methanol]
24 | 100 to 1000 | OCC1(CNC2CCN(c3cccc(NCc4ccccc4)c3Cl)CC2)CCC1 [Example 24, (1-((1-(3-(benzylamino)-2-chlorophenyl)piperidin-4-ylamino)methyl)cyclobutyl)methanol]
25 | 100 to 1000 | Cc1c(Nc2nsc3nccnc23)cccc1-c1ccccc1 [Example 25, N-(2-methylbiphenyl-3-yl)isothiazolo[4,5-b]pyrazin-3-amine]
26 | 100 to 1000 | Cc1c(-c2ccccc2)cccc1N1CCC[C@@H](N)C1 [Example 26, (R)-1-(2-methylbiphenyl-3-yl)piperidin-3-amine]
27 | 100 to 1000 | Cc1c(-c2ccccc2)cccc1N1CCC(CN)CC1 [Example 27, (1-(2-methylbiphenyl-3-yl)piperidin-4-yl)methanamine]
28 | 1000 to 2000 | Cc1c(NCC2CCCNC2)cccc1-c1ccccc1 (centres unmarked) [Example 28, 2-methyl-N-(piperidin-3-ylmethyl)biphenyl-3-amine]
29 | 1000 to 2000 | Cc1c(-c2ccccc2)cccc1N1CC[C@H](CN)C1 [Example 29, (R)-(1-(2-methylbiphenyl-3-yl)pyrrolidin-3-yl)methanamine]
30 | 100 to 1000 | Cc1c(-c2ccccc2)cccc1N1CCC2(CCCC(=O)N2)CC1 [Example 30, 9-(2-methylbiphenyl-3-yl)-1,9-diazaspiro[5.5]undecan-2-one]
31 | 100 to 1000 | Cc1c(-c2ccccc2)cccc1N1CCC2(CCCCN2)CC1 [Example 31, 9-(2-methylbiphenyl-3-yl)-1,9-diazaspiro[5.5]undecane]
32 | 100 to 1000 | Cc1c(C2=CCC(N3CCCC3)CC2)cccc1-c1ccccc1 (centres unmarked) [Example 32, 1-(4-(2-methylbiphenyl-3-yl)cyclohex-3-enyl)pyrrolidine]
33 | 1000 to 2000 | Cc1c(NC(=O)N2CCCC(N)C2)cccc1-c1ccccc1 (centres unmarked) [Example 33, 3-amino-N-(2-methylbiphenyl-3-yl)piperidine-1-carboxamide]
34 | 100 to 1000 | N#Cc1c(-c2ccccc2)csc1Nc1nccc2cc(CNCCO)cnc12 [Example 34, 2-[(3-{[(2-hydroxyethyl)amino]methyl}-1,7-naphthyridin-8-yl)amino]-4-phenylthiophene-3-carbonitrile]
35 | ≤ 10 | Cc1c(-c2nc3c(s2)CN(C(=O)CN(C)C)C3)cccc1-c1cccc(-c2nc3c(s2)CN(C(=O)CN2CC[C@@H](O)C2)C3)c1C [Example 35, (R)-2-(dimethylamino)-1-(2-(3′-(5-(2-(3-hydroxypyrrolidin-1-yl)acetyl)-5,6-dihydro-4H-pyrrolo[3,4-d]thiazol-2-yl)-2,2′-dimethylbiphenyl-3-yl)-4H-pyrrolo[3,4-d]thiazol-5(6H)-yl)ethanone]
36 | ≤ 10 | CCN(C)CC(=O)N1Cc2nc(-c3cccc(-c4cccc(C#CC5CCNCC5)c4C)c3C)sc2C1 [Example 36, 1-(2-(2,2′-dimethyl-3′-(piperidin-4-ylethynyl)biphenyl-3-yl)-4H-pyrrolo[3,4-d]thiazol-5(6H)-yl)-2-(ethyl(methyl)amino)ethanone]
37 | 100 to 1000 | CCN(C)CC(=O)N1Cc2nc(-c3cccc(-c4cccc(N5CCC6NCCC6C5)c4C)c3C)sc2C1 (centres unmarked) [Example 37, 1-(2-(2,2′-dimethyl-3′-(tetrahydro-1H-pyrrolo[3,2-c]pyridin-5(6H,7H,7aH)-yl)biphenyl-3-yl)-4H-pyrrolo[3,4-d]thiazol-5(6H)-yl)-2-(ethyl(methyl)amino)ethanone]
38 | 10 to 100 | CCN(C)CC(=O)N1Cc2nc(-c3cccc(-c4cccc(N5CCn6cncc6C5)c4C)c3C)sc2C1 [Example 38, 1-(2-(3′-(5,6-dihydroimidazo[1,5-a]pyrazin-7(8H)-yl)-2,2′-dimethylbiphenyl-3-yl)-4H-pyrrolo[3,4-d]thiazol-5(6H)-yl)-2-(ethyl(methyl)amino)ethanone]
